According to patent US20230054887A1, “SWEETENING AND TASTE-MASKING COMPOSITIONS, PRODUCTS AND USES THEREOF” (HEALTHTECH BIO ACTIVES, S.L.U., priority 2017, published 2023):

Key:
Type in all cases: in vivo
[1] = Masking bitterness of quinine, test panel, equibitter solution; conditions: 250 ppm quinine
Protocol: The bitter masking effect against quinine was assayed, following an analogous procedure to the one used in Example 10 for paracetamol.
The following substances were assayed: NHDC alone, beta-cyclodextrin alone, a composition comprising NHDC and beta-cyclodextrin in a molar ratio 1:1 (Example F) and a composition comprising NHDC and beta-cyclodextrin in a molar ratio 1:3 (Example G).
Analogously to Example 10, several aqueous solutions were prepared, each containing 250 ppm of quinine and different concentrations of the tested substance, namely, 5, 25, 50, 75 and 100 ppm. For each tested solution, a test panel determined the equibitter quinine solution, and the masking effect was calculated using a formula analogous to formula III (substituting 5000 with […]).
The masking synergies between beta-cyclodextrin and NHDC in Examples F and G were calculated following an analogous procedure to the one disclosed in Example 10. Therefore, using the molecular weight of each component, the amounts of beta-cyclodextrin and NHDC contained in each amount of the combinations of Examples F and G were calculated and, then, the antibittering contribution of each component was calculated on the basis of the data of Table 19. The expected masking effect was calculated as the sum of the contributions of each component, and, finally, the masking synergy was calculated (using Formula IV).

[2] = Sweetening synergy sensory test: concentration equisweet to sucrose reference solutions in water, expert panel; conditions: for Relative sweetening power: ratio sucrose concentration / equisweet concentration; for Equisweet concentration: room temperature
Protocol: A sensory test was performed to assess the sweetening synergism achieved with the composition of the invention (Examples A and B), and this effect was also compared to the effect obtained with analogous compositions containing beta-cyclodextrin (Comparative Examples A and B). Further compositions of the present invention (Examples C, D and E) were also assessed in this sensory test.
A group of expert panellists in sweet descriptors evaluated the sweetness of the different compositions as well as that of the ingredients NHDC, beta-cyclodextrin and gamma-cyclodextrin used alone.
Each evaluated sweetening agent was dissolved in water at different concentrations, at room temperature. The panel then determined, for each product, the concentration that was equisweet to the reference solutions of 1% and 3% sucrose in water. The results are summarized in Table 3 (Examples A and B are abbreviated as Ex. A and Ex. B, respectively, and the Comparative Examples A and B are abbreviated as Comp. A and Comp. B, respectively).
Since beta- and gamma-cyclodextrins are also sweet compounds, the equisweet concentrations of both cyclodextrins were also determined by the test panel to assess their possible contribution to the sweetness of the composition. […] Therefore, as the equisweet concentrations of both cyclodextrins are at least three orders of magnitude larger than those of NHDC, it was concluded that their contribution to the sweetness was negligible.
A more quantitative evaluation of the sweetness synergy provided by the compositions of the present invention was performed by comparing the real measured sweetness of the compositions comprising gamma-cyclodextrin and NHDC with the theoretical sweetness expected from the sum of the individual contribution of each component in the composition.
To this end, the relative sweetening power of each component was first calculated. For comparative purposes, the relative sweetening power of beta-cyclodextrin was also calculated. The relative sweetening power of a given compound, at a given sweetness level, indicates how many times sweeter this compound is than sucrose. It is therefore calculated as the ratio between the concentration of sucrose and the equisweet concentration of each ingredient, for each sweetness level.
From the relative sweetening power of each ingredient, it is possible to calculate the expected sweetness (sucrose equivalence) of a blend of those ingredients, according to Formula I:
Expected sweetness (sucrose equivalence) of a blend C1+C2=Concentration of compound C1×relative sweetening power of compound C1+Concentration of compound C2×relative sweetening power of compound C2
Then, the sweetness synergy of a blend of components can be calculated according to Formula II: […]
As disclosed above in Example 3, the relative sweetening power of a given compound, at a given sweetness level, indicates how many times sweeter than sucrose the compound is, and the value is calculated as the ratio between the concentration of sucrose and the equisweet concentration of the compound.

[3] = Masking bitterness of paracetamol, calibrated test panel, equibitter solution; conditions: 5000 ppm paracetamol
Protocol: The bitter masking effect against paracetamol was assayed. The anti-bittering effect was measured as a dose-response profile vs. a solution of paracetamol.
The following substances were assayed: NHDC alone, gamma-cyclodextrin alone and compositions comprising NHDC and gamma-cyclodextrin in a molar ratio 1:3 (Example B), 1.5:1 (Example C), 1:6 (Example D) and 1:10 (Example E).
For evaluating the masking effect of each substance, several aqueous solutions were prepared, each containing 5000 ppm of paracetamol and different concentrations of the tested substance, namely, 5, 25, 50, 75 and 100 ppm.
A calibrated test panel compared each solution with several solutions of paracetamol in water at different concentrations, and determined the equibitter paracetamol solution. The equibitter solution was calculated as the average of all the evaluations of the panel.
The masking effect was then calculated from the reference amount of paracetamol contained in each tested solution (5000 ppm) and the amount of paracetamol in the equibitter solution, using the following formula (Formula III): […]
For calculating the masking synergies between gamma-cyclodextrin and NHDC, first, for each amount of the combination (Examples A-E), using the molecular weight of each component, the amounts of gamma-cyclodextrin and NHDC contained therein were calculated. For example, 100 ppm of Example B contain 13.61 ppm of NHDC and 86.39 ppm of gamma-cyclodextrin. Then, the antibittering contribution of each component in the composition was calculated, on the basis of the data of Table 13. For example, 13.61 ppm of NHDC provide 9.44% masking effect and 86.39 ppm of gamma-cyclodextrin provide 5.46% masking effect (the antibittering effects for each specific concentration was calculated by interpolation of the data points in Table 13). Therefore, the expected masking effect is calculated as the sum of the contributions of each component. For example, the expected masking effect of 100 ppm of Example B is 14.90 (i.e., 9.44 plus 5.46).
Finally, the masking synergy is calculated using Formula IV: […]
The masking effect of Examples C (NHDC:gCD 1.5:1), D (NHDC:gCD 1:6) and E (NHDC:gCD 1:10) was also evaluated. Aqueous solutions were prepared, each one of them containing 5000 ppm of paracetamol and different concentrations of each one of the tested formulations Ex. C-E, namely, 25 and 50 ppm. Results are disclosed in Tables 15 to 17.

[4] = Taste profile by calibrated taste panel at concentrations equisweet to 3% sucrose; conditions: 0- to 5-point scale
Protocol: The overall taste profile achieved with the sweetening composition of the present invention was evaluated and compared with the target taste profile of sucrose.
For this assay, all samples were evaluated at the same sweetness level, so each sample was used at a concentration which was equisweet to 3% sucrose. For each sample, the following parameters were evaluated: • Time to first sweetness detection • Time to maximum sweetness • Lingering (time for the sweetness to disappear) • Off-flavour: menthol, liquorice (any tastes that are different from sweetness) • Mouthfeel (density, i.e., the perceived viscosity in the mouth)
These evaluations were carried out by a calibrated taste panel, and conducted at room temperature.
Each of those parameters was evaluated on a 0- to 5-point scale. The values for sucrose were the reference, and were considered the target to emulate.

[5] = equisweet to 1% sucrose in water
[6] = equisweet to 3% sucrose in water

OC[C@H]1O[C@@H]2O[C@H]3[C@H](O)[C@@H](O)[C@@H](O[C@H]4[C@H](O)[C@@H](O)[C@@H](O[C@H]5[C@H](O)[C@@H](O)[C@@H](O[C@H]6[C@H](O)[C@@H](O)[C@@H](O[C@H]7[C@H](O)[C@@H](O)[C@@H](O[C@H]8[C@H](O)[C@@H](O)[C@@H](O[C@H]1[C@H](O)[C@H]2O)O[C@@H]8CO)O[C@@H]7CO)O[C@@H]6CO)O[C@@H]5CO)O[C@@H]4CO)O[C@@H]3CO [bCD, Beta-Cyclodextrin]
Masking effect (real) ([1]; tested substance 5 ppm): 0.00% | Masking effect (real) ([1]; tested substance 25 ppm): 6.67% | Masking effect (real) ([1]; tested substance 50 ppm): 11.67% | Masking effect (real) ([1]; tested substance 75 ppm): 16.67% | Masking effect (real) ([1]; tested substance 100 ppm): 13.33% | Relative sweetening power ([2]; 1% sucrose level): 0.8333 | Relative sweetening power ([2]; 3% sucrose level): 0.4286 | Equisweet concentration [2, 5]: 12000 ppm | Equisweet concentration [2, 6]: 70000 ppm

OC[C@H]1O[C@@H]2O[C@H]3[C@H](O)[C@@H](O)[C@@H](O[C@H]4[C@H](O)[C@@H](O)[C@@H](O[C@H]5[C@H](O)[C@@H](O)[C@@H](O[C@H]6[C@H](O)[C@@H](O)[C@@H](O[C@H]7[C@H](O)[C@@H](O)[C@@H](O[C@H]8[C@H](O)[C@@H](O)[C@@H](O[C@H]9[C@H](O)[C@@H](O)[C@@H](O[C@H]1[C@H](O)[C@H]2O)O[C@@H]9CO)O[C@@H]8CO)O[C@@H]7CO)O[C@@H]6CO)O[C@@H]5CO)O[C@@H]4CO)O[C@@H]3CO [gCD, gamma-cyclodextrin]
Relative sweetening power ([2]; 1% sucrose level): 0.4000 | Relative sweetening power ([2]; 3% sucrose level): 0.3529 | Equisweet concentration [2, 5]: 25000 ppm | Equisweet concentration [2, 6]: 85000 ppm | Masking effect (real) ([3]; tested substance 5 ppm): 1.00% | Masking effect (real) ([3]; tested substance 25 ppm): 2.00% | Masking effect (real) ([3]; tested substance 50 ppm): 4.00% | Masking effect (real) ([3]; tested substance 75 ppm): 5.00% | Masking effect (real) ([3]; tested substance 100 ppm): 6.00%

OC[C@H]1O[C@@](CO)(O[C@H]2O[C@H](CO)[C@@H](O)[C@H](O)[C@H]2O)[C@@H](O)[C@@H]1O [Sucrose, sucrose]
Lingering [4]: 2.00 | Mouthfeel (density) [4]: 4.00 | Off-flavour: menthol, licorice [4]: 0.00 | Time to first sweetness [4]: 1.00 | Time to maximum sweetness [4]: 2.00 | Total sweetness [4]: 5.00
